Patent US20190099401A1, “METHOD FOR PROTECTING CORNEAL ENDOTHELIAL CELLS FROM THE IMPACT CAUSED BY AN EYE SURGERY” (priority 2017, published 2019)
Values joined by “and” are separate entries in the source; they are usually repeats but may differ in a detail not shown here. Equal entries are not always repeated.

Experiments:
[1] = tested on: corneal endothelial cells; test: Phacoemulsification in patients with low corneal endothelial cell density; type: in vivo; conditions: 28 days four times a day before phacoemulsification, one patient eye
Source text: Please refer to the following Table. 1 showing the age and sex of the patients, concentration of ascorbic acid in the ophthalmic composition, cause of low corneal endothelial cell density (ECD), total energy of phacoemulsification, duration time of phacoemulsification, corneal endothelial cell density before and after the phacoemulsification, and the percentage of cell loss. […] The ratio of cell loss after may be down regulated to 6.2±1.9%.

ARPE19 cells = test: Oxidative stress test (cellular ROS detection assay kit); type: cell-based; conditions: after 5 days of culturing, FIG. 3
Method: (§1) The oxidative stress of ARPE19 and B4G12 cells were tested using cellular ROS detection assay kit (Deep Red Fluorescence, ab186029) after 5 days of culturing. The tested groups were the same as the abovementioned control group 1, control group 2, comparative group, and treatment group. The test results were shown in FIG. 3, wherein the red fluorescent light represented the existence of oxidative stress.

B4G12 cells = test: as above; type: cell-based; conditions: after 5 days of culturing, FIG. 3
Method: as §1

[2] = tested on: retinal pigment epithelial cell line (ARPE19); test: Cell experiment: paraquat-induced apoptosis, cell morphology; type: cell-based; conditions: for cell morphology (apoptosis, vesicle formation) / cell morphology (protective effect): FIG. 1
Method: (§2) In the present embodiment, retinal pigment epithelial cell line (ARPE19) and corneal endothelial cell line (B4G12) were subjected to the cell experiment. The B4G12 cells were cultured with the cell culture medium comprising Human Endothelial-SFM, 2% of fetal bovine serum (FBS), and 10 ng/ml of basic fibroblast growth factor (bFGF). The culture medium was changed every two days. The ARPE 19 cells were cultured with the cell culture medium comprising Dulbecco's Modified Eagle Medium Nutrient Mixture F-12 (DMEM-F12), 10% of FBS, 0.5% of ampicillin, and 0.125% of gentamycin. The culture medium was changed every two days.
(§3) 2 mM of paraquat was added to the culture medium of the ARPE19 cells, and 0.2 mM of paraquat was added to the culture medium of the B4G12 cells to induce apoptosis of the cells. 0.1, 0.5, 1.0, and 2.0 mM of ascorbic acid were then added respectively to the culture medium of the cells for 5 days and the cell morphologies thereof were shown in FIG. 1. […] Accordingly, the lowest effective concentration of ascorbic acid is 1.0 mM.
(§4) Further, ARPE19 cells and B4G12 cells were divided respectively into four groups, which comprises a control group 1 without added ascorbic acid or paraquat; a control group 2 added with ascorbic acid but without paraquat; a comparative group added with paraquat but without ascorbic acid; and a treatment group added with ascorbic acid and paraquat, wherein 1 mM of ascorbic acid were added to the control groups 2 and treatment groups, 2 mM of paraquat were added to the comparative group and the treatment group of ARPE19 cells, and 0.2 mM of paraquat were added to the comparative group and the treatment group of B4G12 cells.

[3] = tested on: corneal endothelial cell line (B4G12); test: as above; type: cell-based; conditions: for cell morphology (apoptosis, vesicle formation) / cell morphology (protective effect): FIG. 1
Method: as §2, §3, §4

[4] = 1 mM ascorbic acid without paraquat
[5] = control group 2: 1 mM ascorbic acid without paraquat, FIG. 2

Structure (SMILES): O=C1O[C@H]([C@@H](O)CO)C(O)=C1O [ascorbic acid]
- Cell lost ([1]; 20 mg/cc ascorbic acid): 5.6% and 9.3%
- Post-op corneal ECD ([1]; 20 mg/cc ascorbic acid): 981 cells/mm^2 and 1239 cells/mm^2
- Cell lost ([1]; 50 mg/cc ascorbic acid): 3.6% and 5.3% and 8.6% and 8.0% and 7.6% and 6.2% and 5.5% (2×) and 6.9% and 5.1%
- Post-op corneal ECD ([1]; 50 mg/cc ascorbic acid): 1355 cells/mm^2 and 983 cells/mm^2 and 1238 cells/mm^2 and 1119 cells/mm^2 and 1249 cells/mm^2 and 1181 cells/mm^2 and 1724 cells/mm^2 and 1112 cells/mm^2 and 1649 cells/mm^2 and 838 cells/mm^2
- oxidative stress (red fluorescence, ROS) (ARPE19 cells; 1 mM ascorbic acid + 2 mM paraquat): sufficiently decrease the oxidative stress caused by paraquat
- oxidative stress (red fluorescence, ROS) (ARPE19 cells; [4]): did not increase significantly
- oxidative stress (red fluorescence, ROS) (B4G12 cells; 1 mM ascorbic acid + 0.2 mM paraquat): sufficiently decrease the oxidative stress caused by paraquat
- oxidative stress (red fluorescence, ROS) (B4G12 cells; [4]): did not increase significantly
- cell morphology (apoptosis, vesicle formation) ([2]; 0.1 mM ascorbic acid, 2 mM paraquat, 5 days): showed cell apoptosis and vesicle formation
- cell morphology (apoptosis, vesicle formation) ([2]; 0.5 mM ascorbic acid, 2 mM paraquat, 5 days): showed cell apoptosis and vesicle formation
- cell morphology (protective effect) ([2]; 1.0 mM ascorbic acid, 2 mM paraquat, 5 days): showed the protective effect for the cells
- cell morphology (protective effect) ([2]; 2.0 mM ascorbic acid, 2 mM paraquat, 5 days): showed the protective effect for the cells
- lowest effective concentration ([2]; 2 mM paraquat, 5 days): 1.0 mM
- cell apoptosis [2, 5]: did not show significant cell apoptosis
- cell apoptosis and cell vesicle generation ([2]; treatment group: 1 mM ascorbic acid + 2 mM paraquat, FIG. 2): cell apoptosis and cell vesicle generation were not significant
- cell morphology (apoptosis, vesicle formation) ([3]; 0.1 mM ascorbic acid, 0.2 mM paraquat, 5 days): showed cell apoptosis and vesicle formation
- lowest effective concentration ([3]; 0.2 mM paraquat, 5 days): 1.0 mM
- cell morphology (apoptosis, vesicle formation) ([3]; 0.5 mM ascorbic acid, 0.2 mM paraquat, 5 days): showed cell apoptosis and vesicle formation
- cell morphology (protective effect) ([3]; 1.0 mM ascorbic acid, 0.2 mM paraquat, 5 days): showed the protective effect for the cells
- cell morphology (protective effect) ([3]; 2.0 mM ascorbic acid, 0.2 mM paraquat, 5 days): showed the protective effect for the cells
- cell vesicles ([3]; control group 2: 1 mM ascorbic acid without paraquat (same in control group 1), FIG. 2): only some cell vesicles were generated
- cell apoptosis [3, 5]: did not show significant cell apoptosis
- cell apoptosis and cell vesicle generation ([3]; treatment group: 1 mM ascorbic acid + 0.2 mM paraquat, FIG. 2): cell apoptosis and cell vesicle generation were not significant
